From PubChem BioAssay AID2060601 (Molecular Pharmacology Branch, DTP, NCI, 2025)

System: 874868-142-R-J2-PDC complex spheroids, growth % test/control
Experiment: Anticancer human tumor 874868-142-R-J2-PDC patient-derived head and neck squamous carcinoma cell line growth inhibition [CLK]
Conditions: for IC50: curve of first compound; for viability, T/C: stronger effect = lower value
Outline: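 Multi-cell-type spheroids combined patient-derived tumor cells with HUVEC endothelial cells and human mesenchymal stem cells. Paired agents were dosed in half-log steps down from about clinical Cmax, or from 10 microM where Cmax was unknown.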

[1] = second compound 0.0316 µM, first compound 0.0316 µM
[2] = second compound 0.0316 µM, first compound 0.1 µM
[3] = second compound 0.0316 µM, first compound 0.316 µM
[4] = second compound 0.0316 µM, first compound 1 µM
[5] = second compound 0.0316 µM, first compound 3.16 µM
[6] = second compound 0.0316 µM, first compound 10 µM
[7] = second compound 0.1 µM, first compound 0.0316 µM
[8] = second compound 0.1 µM, first compound 0.1 µM
[9] = second compound 0.1 µM, first compound 0.316 µM
[10] = second compound 0.1 µM, first compound 1 µM
[11] = second compound 0.1 µM, first compound 3.16 µM
[12] = second compound 0.1 µM, first compound 10 µM
[13] = second compound 0.316 µM, first compound 0.0316 µM
[14] = second compound 0.316 µM, first compound 0.1 µM
[15] = second compound 0.316 µM, first compound 0.316 µM
[16] = second compound 0.316 µM, first compound 1 µM
[17] = second compound 0.316 µM, first compound 3.16 µM
[18] = second compound 0.316 µM, first compound 10 µM
[19] = second compound 1 µM, first compound 0.0316 µM
[20] = second compound 1 µM, first compound 0.1 µM
[21] = second compound 1 µM, first compound 0.316 µM
[22] = second compound 1 µM, first compound 1 µM
[23] = second compound 1 µM, first compound 3.16 µM
[24] = second compound 1 µM, first compound 10 µM
[25] = second compound 3.16 µM, first compound 0.0316 µM
[26] = second compound 3.16 µM, first compound 0.1 µM
[27] = second compound 3.16 µM, first compound 0.316 µM
[28] = second compound 3.16 µM, first compound 1 µM
[29] = second compound 3.16 µM, first compound 3.16 µM
[30] = second compound 3.16 µM, first compound 10 µM
[31] = second compound 10 µM, first compound 0.0316 µM
[32] = second compound 10 µM, first compound 0.1 µM
[33] = second compound 10 µM, first compound 0.316 µM
[34] = second compound 10 µM, first compound 1 µM
[35] = second compound 10 µM, first compound 3.16 µM
[36] = second compound 10 µM, first compound 10 µM
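Also: spheroids exposed to the compounds for 7 days.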
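For viability, T/C in this document: 100% = DMSO vehicle control viability.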

Structure (SMILES): CC1(C)CCC(CN2CCN(c3ccc(C(=O)NS(=O)(=O)c4ccc(NCC5CCOCC5)c([N+](=O)[O-])c4)c(Oc4cnc5[nH]ccc5c4)c3)CC2)=C(c2ccc(Cl)cc2)C1 + CNC(=O)c1ccc(Nc2nc(OC3CCCC3)c3c(-c4ccc5nc(C)oc5c4)c[nH]c3n2)c(OC)c1
- IC50 (second compound 0.0316 µM): 7610 nM
- IC50 (second compound 0.1 µM): 8100 nM
- IC50 (second compound 0.316 µM): 5320 nM
- IC50 (second compound 1 µM): 3200 nM
- IC50 (second compound 3.16 µM): < 31.6 nM
- IC50 (second compound 10 µM): < 31.6 nM
- viability, T/C [1]: 104%
- viability, T/C [2]: 103%
- viability, T/C [3]: 105%
- viability, T/C [4]: 92.7%
- viability, T/C [5]: 117%
- viability, T/C [6]: 33%
- viability, T/C [7]: 95.8%
- viability, T/C [8]: 89.4%
- viability, T/C [9]: 86.7%
- viability, T/C [10]: 84.2%
- viability, T/C [11]: 94.6%
- viability, T/C [12]: 41.1%
- viability, T/C [13]: 56.3%
- viability, T/C [14]: 67.9%
- viability, T/C [15]: 72.4%
- viability, T/C [16]: 62.5%
- viability, T/C [17]: 51%
- viability, T/C [18]: 44.2%
- viability, T/C [19]: 51.8%
- viability, T/C [20]: 51.5%
- viability, T/C [21]: 50.6%
- viability, T/C [22]: 46.1%
- viability, T/C [23]: 51.1%
- viability, T/C [24]: 34.1%
- viability, T/C [25]: 46.2%
- viability, T/C [26]: 48.4%
- viability, T/C [27]: 39.1%
- viability, T/C [28]: 41.6%
- viability, T/C [29]: 43.8%
- viability, T/C [30]: 39.8%
- viability, T/C [31]: 40.5%
- viability, T/C [32]: 51%
- viability, T/C [33]: 45.6%
- viability, T/C [34]: 47.7%
- viability, T/C [35]: 57.2%
- viability, T/C [36]: 31.8%

Structure (SMILES): CC1COCCN1c1cc(C2(S(C)(=N)=O)CC2)nc(-c2ccnc3[nH]ccc23)n1 (stereo unspecified) + CNC(=O)c1ccc(Nc2nc(OC3CCCC3)c3c(-c4ccc5nc(C)oc5c4)c[nH]c3n2)c(OC)c1
- IC50 (second compound 0.0316 µM): 5960 nM
- IC50 (second compound 0.1 µM): 2860 nM
- IC50 (second compound 0.316 µM): 404 nM
- IC50 (second compound 1 µM): < 31.6 nM
- IC50 (second compound 3.16 µM): < 31.6 nM
- IC50 (second compound 10 µM): < 31.6 nM
- viability, T/C [1]: 125%
- viability, T/C [2]: 96.2%
- viability, T/C [3]: 91.9%
- viability, T/C [4]: 69.8%
- viability, T/C [5]: 53.9%
- viability, T/C [6]: 45.9%
- viability, T/C [7]: 101%
- viability, T/C [8]: 79.1%
- viability, T/C [9]: 73.1%
- viability, T/C [10]: 55%
- viability, T/C [11]: 54.8%
- viability, T/C [12]: 39%
- viability, T/C [13]: 51.2%
- viability, T/C [14]: 53.8%
- viability, T/C [15]: 53%
- viability, T/C [16]: 40.2%
- viability, T/C [17]: 37.7%
- viability, T/C [18]: 35.6%
- viability, T/C [19]: 44.7%
- viability, T/C [20]: 47.6%
- viability, T/C [21]: 50.8%
- viability, T/C [22]: 35%
- viability, T/C [23]: 21.8%
- viability, T/C [24]: 23.1%
- viability, T/C [25]: 42.5%
- viability, T/C [26]: 46.5%
- viability, T/C [27]: 44.4%
- viability, T/C [28]: 34.9%
- viability, T/C [29]: 34.6%
- viability, T/C [30]: 27.8%
- viability, T/C [31]: 44.1%
- viability, T/C [32]: 37.9%
- viability, T/C [33]: 41.7%
- viability, T/C [34]: 29.6%
- viability, T/C [35]: 26.6%
- viability, T/C [36]: 17.2%

Structure (SMILES): NC(=O)C(=Cn1cnc(-c2cc(C(F)(F)F)cc(C(F)(F)F)c2)n1)c1cncnc1 + CNC(=O)c1ccc(Nc2nc(OC3CCCC3)c3c(-c4ccc5nc(C)oc5c4)c[nH]c3n2)c(OC)c1
- IC50 (second compound 0.0316 µM): 31.3 nM
- IC50 (second compound 0.1 µM): 21.3 nM
- IC50 (second compound 0.316 µM): < 9.49 nM
- IC50 (second compound 1 µM): < 9.49 nM
- IC50 (second compound 3.16 µM): < 9.49 nM
- IC50 (second compound 10 µM): < 9.49 nM
- viability, T/C (second compound 0.0316 µM, first compound 0.00949 µM): 70.8%
- viability, T/C (second compound 0.0316 µM, first compound 0.03 µM): 49.3%
- viability, T/C (second compound 0.0316 µM, first compound 0.0949 µM): 28.2%
- viability, T/C (second compound 0.0316 µM, first compound 0.3 µM): 6.41%
- viability, T/C (second compound 0.0316 µM, first compound 0.949 µM): 4.32%
- viability, T/C (second compound 0.0316 µM, first compound 3 µM): 4.58%
- viability, T/C (second compound 0.1 µM, first compound 0.00949 µM): 66.4%
- viability, T/C (second compound 0.1 µM, first compound 0.03 µM): 40.8%
- viability, T/C (second compound 0.1 µM, first compound 0.0949 µM): 27.1%
- viability, T/C (second compound 0.1 µM, first compound 0.3 µM): 4.57%
- viability, T/C (second compound 0.1 µM, first compound 0.949 µM): 3.53%
- viability, T/C (second compound 0.1 µM, first compound 3 µM): 3.49%
- viability, T/C (second compound 0.316 µM, first compound 0.00949 µM): 45.8%
- viability, T/C (second compound 0.316 µM, first compound 0.03 µM): 33.4%
- viability, T/C (second compound 0.316 µM, first compound 0.0949 µM): 17.1%
- viability, T/C (second compound 0.316 µM, first compound 0.3 µM): 2.51%
- viability, T/C (second compound 0.316 µM, first compound 0.949 µM): 4.77%
- viability, T/C (second compound 0.316 µM, first compound 3 µM): 2.89%
- viability, T/C (second compound 1 µM, first compound 0.00949 µM): 34%
- viability, T/C (second compound 1 µM, first compound 0.03 µM): 19.8%
- viability, T/C (second compound 1 µM, first compound 0.0949 µM): 14.9%
- viability, T/C (second compound 1 µM, first compound 0.3 µM): 2.12%
- viability, T/C (second compound 1 µM, first compound 0.949 µM): 1%
- viability, T/C (second compound 1 µM, first compound 3 µM): 4.53%
- viability, T/C (second compound 3.16 µM, first compound 0.00949 µM): 35.6%
- viability, T/C (second compound 3.16 µM, first compound 0.03 µM): 19.2%
- viability, T/C (second compound 3.16 µM, first compound 0.0949 µM): 12.4%
- viability, T/C (second compound 3.16 µM, first compound 0.3 µM): 1.32%
- viability, T/C (second compound 3.16 µM, first compound 0.949 µM): 6.47%
- viability, T/C (second compound 3.16 µM, first compound 3 µM): 0.18%
- viability, T/C (second compound 10 µM, first compound 0.00949 µM): 36%
- viability, T/C (second compound 10 µM, first compound 0.03 µM): 18.8%
- viability, T/C (second compound 10 µM, first compound 0.0949 µM): 3.67%
- viability, T/C (second compound 10 µM, first compound 0.3 µM): 1.02%
- viability, T/C (second compound 10 µM, first compound 0.949 µM): 3.87%
- viability, T/C (second compound 10 µM, first compound 3 µM): 4.53%
